Laboratory results as given in patent US8415469B2, “Compounds and methods for kinase modulation, and indications therefor” (Plexxikon Inc., priority 2005, dated 2013).

Tests used:
Format in all cases: biochemical
[1] = biological target: T1, Abl (Homo sapiens, UniProt P00519); test: AlphaScreen kinase assay, Abl; details: read-out: activity toward kinase Abl, IC50
T1 construct: P1121. pET-SPEC BI-PTP Abl G227-V515-X; His6 (N); made in house; host or cells: E. coli (PTP1B co-expressed)
T1 sequence (P00519 with tags, fused parts or gaps): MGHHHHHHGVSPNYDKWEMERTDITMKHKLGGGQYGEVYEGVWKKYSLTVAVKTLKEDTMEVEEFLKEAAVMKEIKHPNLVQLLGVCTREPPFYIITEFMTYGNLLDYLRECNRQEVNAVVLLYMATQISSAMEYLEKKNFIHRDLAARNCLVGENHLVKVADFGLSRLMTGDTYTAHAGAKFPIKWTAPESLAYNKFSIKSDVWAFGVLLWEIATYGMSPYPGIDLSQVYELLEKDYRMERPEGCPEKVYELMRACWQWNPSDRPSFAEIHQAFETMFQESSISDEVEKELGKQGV
Outline: (§1)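 Stock 20 mM compound in DMSO, diluted 1:3 serially to 8 final concentrations. Kinase phosphorylates biotinylated peptide; donor (streptavidin) and acceptor (anti-phospho antibody) beads then associate. Reduced acceptor emission indicates inhibition.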

[2] = biological target: T2, Flt4 (Homo sapiens, UniProt P35916); test: AlphaScreen kinase assay, Flt4; details: read-out: IC50, activity toward kinase Flt4
T2 construct: purchased ProQinase GmbH (Freiburg, Germany)
From the text: AlphaScreen assay was used to screen additional kinases. The assay is similarly dependent on the phosphorylation of a peptide substrate. In this assay, an antibody that recognizes phosphorylated substrate is bound to an acceptor bead. The peptide substrate is attached to biotin, which binds to a donor head that contains streptavidin. Thus phosphorylated substrate is bound by antibody and streptavidin, bringing the donor and acceptor heads into close proximity when kinase is not inhibited. The donor produces singlet oxygen which results in emission from the acceptor when they are in close proximity. Conversely, when kinase is inhibited, the donor and acceptor beads are not associated and the emission from the acceptor is reduced.
AlphaScreen assays were done using compounds dissolved in DMSO to a concentration of 20 mM. The compounds were diluted accordingly to the desired final concentrations in each sample well, using 1:3 serial dilution for a total of 8 concentration points.

[3] = biological target: T3, Kit (Homo sapiens, UniProt P10721); test: AlphaScreen kinase assay, Kit; details: read-out: IC50, activity toward kinase Kit
T3 construct: P1332.N6 BI PTP KIT M552-K948-X COD; His6 (N); made in house; host or cells: E. coli (PTP1B co-expressed)

[4] = biological target: T4, FGFR1 (Homo sapiens, UniProt P11362, C488A/C584S); test: AlphaScreen kinase assay, FGFR1; details: read-out: IC50, activity toward kinase FGFR
T4 construct: P1351.pET N6 BI-PTP FGFR A458-E765-X C488A, C584S; made in house; host or cells: E. coli (PTP1B co-expressed)

[5] = biological target: T5, Jnk2 (Homo sapiens, UniProt P45984); test: AlphaScreen kinase assay, Jnk2; details: read-out: IC50, activity toward kinase Jnk2
T5 construct: purchased Roche Protein Expression Group (Indianapolis, IN)
Outline: as §1

[6] = biological target: T6, Kdr (Homo sapiens, UniProt P35968); test: Z'-Lyte FRET kinase assay (Invitrogen), Kdr; details: read-out: IC50, activity toward kinase Kdr
T6 construct: purchased Invitrogen (assay run by Invitrogen)

[7] = biological target: T7, Ret (Homo sapiens, UniProt P07949); test: AlphaScreen kinase assay, Ret; details: read-out: IC50, activity toward kinase Ret
T7 construct: P1378.pET-SF BI-PTP RET H661-R1012 HIS; made in house
T7 sequence (P07949 with tags, fused parts or gaps): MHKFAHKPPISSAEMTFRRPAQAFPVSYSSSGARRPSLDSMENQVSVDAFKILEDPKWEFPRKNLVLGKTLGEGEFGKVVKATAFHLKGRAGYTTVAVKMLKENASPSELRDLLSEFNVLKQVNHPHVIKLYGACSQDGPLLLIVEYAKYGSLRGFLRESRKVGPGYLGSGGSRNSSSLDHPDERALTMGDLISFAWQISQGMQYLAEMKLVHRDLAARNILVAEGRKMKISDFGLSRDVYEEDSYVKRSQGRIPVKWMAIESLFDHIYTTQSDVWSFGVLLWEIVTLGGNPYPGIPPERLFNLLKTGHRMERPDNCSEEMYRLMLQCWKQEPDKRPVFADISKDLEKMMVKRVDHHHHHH

[8] = biological target: T8, Pyk2 (Homo sapiens, UniProt Q14289); test: AlphaScreen kinase assay, Pyk2; details: read-out: IC50, activity toward kinase Pyk2
T8 construct: purchased Upstate Biotechnology

[9] = biological target: T9, Fak (Homo sapiens, UniProt Q05397); test: AlphaScreen kinase assay, Fak; details: read-out: IC50, activity toward kinase Fak
T9 construct: P1358.pFastBacHtb FAK S411-Q686-X; His6 with pFastBacHTb leader (TEV site) (N); made in house; host or cells: Sf9 (baculovirus)

[10] = biological target: T10, Flt1 (Homo sapiens, UniProt P17948); test: AlphaScreen kinase assay, Flt1; details: read-out: IC50, activity toward kinase Flt1
T10 construct: P1826.pETN6 BI-PTP FLT1 M799-D1165-X WT; His6 (N); made in house; host or cells: E. coli (PTP1B co-expressed)
T10 sequence (P17948 with tags, fused parts or gaps): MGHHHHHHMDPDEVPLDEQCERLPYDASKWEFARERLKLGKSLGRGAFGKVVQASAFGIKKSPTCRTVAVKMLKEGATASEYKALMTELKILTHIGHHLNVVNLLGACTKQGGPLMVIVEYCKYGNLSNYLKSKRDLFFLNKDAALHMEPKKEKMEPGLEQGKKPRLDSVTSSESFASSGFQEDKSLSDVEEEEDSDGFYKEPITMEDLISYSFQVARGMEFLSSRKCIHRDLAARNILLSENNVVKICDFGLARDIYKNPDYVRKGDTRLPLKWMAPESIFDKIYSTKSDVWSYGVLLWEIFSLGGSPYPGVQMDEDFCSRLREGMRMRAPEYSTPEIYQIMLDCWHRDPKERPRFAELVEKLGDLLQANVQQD

[11] = biological target: T11, Src (Homo sapiens, UniProt P12931); test: AlphaScreen kinase assay, Src; details: read-out: IC50, activity toward kinase Src
T11 construct: P1144. pET-N6 BI-PTP SRC V86-L536-X; made in house

[12] = biological target: T12, Jnk3 (Homo sapiens, UniProt P53779); test: AlphaScreen kinase assay, Jnk3; details: read-out: IC50, activity toward kinase Jnk3
T12 construct: purchased Upstate Biotechnology

[13] = biological target: T13, Jnk1 (Homo sapiens, UniProt P45983); test: AlphaScreen kinase assay, Jnk1; details: read-out: IC50, activity toward kinase Jnk1
T13 construct: purchased Upstate Biotechnology

[14] = biological target: T14, Fms (Homo sapiens, UniProt P07333); test: AlphaScreen kinase assay, Fms; details: read-out: IC50, activity toward kinase Fms
T14 construct: purchased Upstate Biotechnology

[15] = biological target: T15, B-Raf V600E (Homo sapiens, UniProt P15056, V600E); test: AlphaScreen kinase assay, B-Raf V600E; details: read-out: IC50, activity toward kinase B-Raf V600E
T15 construct: P4254. pFastBacBD-CDC37 BRAF D437-K722-X, V600E; His6 with pFastBac HT leader (TEV site) (N); made in house; host or cells: Sf9 (baculovirus; chaperone CDC37 co-expressed)

[16] = biological target: T16, B-Raf (Homo sapiens, UniProt P15056); test: AlphaScreen kinase assay, B-Raf; details: read-out: IC50, activity toward kinase B-Raf
T16 construct: purchased Upstate Biotechnology
Method: AlphaScreen assays were done using compounds dissolved in DMSO to a concentration of 20 mM. The compounds were diluted accordingly to the desired final concentrations in each sample well, using 1:3 serial dilution for a total of 8 concentration points. Plates were prepared such that each kinase reaction is 20 μl in 1× kinase buffer, 5% DMSO and 10 μM ATP. After incubation of the kinase reaction for 1 hour at room temperature, 5 μl of donor beads in stop buffer (50 mM EDTA in 1× kinase buffer) was added, the sample was mixed and incubated for 20 minutes at room temperature before adding 5 μl of acceptor beads in stop buffer. The samples were incubated for 60 minutes at room temperature and the signal per well was read on AlphaQuest reader.

[17] = biological target: T17, c-Raf-1 (Homo sapiens, UniProt P04049); test: AlphaScreen kinase assay, c-Raf-1; details: read-out: IC50, activity toward kinase c-Raf-1
T17 construct: purchased Upstate Biotechnology

[18] = biological target: T18, Zap70 (Homo sapiens, UniProt P43403); test: AlphaScreen kinase assay, Zap70; details: read-out: IC50, activity toward kinase Zap70
T18 construct: P1868.pFastBac1 ZAP70 D327-G606 HIS, WT; His7 (HHHHHHH) (C); made in house
T18 sequence (P43403 with tags, fused parts or gaps): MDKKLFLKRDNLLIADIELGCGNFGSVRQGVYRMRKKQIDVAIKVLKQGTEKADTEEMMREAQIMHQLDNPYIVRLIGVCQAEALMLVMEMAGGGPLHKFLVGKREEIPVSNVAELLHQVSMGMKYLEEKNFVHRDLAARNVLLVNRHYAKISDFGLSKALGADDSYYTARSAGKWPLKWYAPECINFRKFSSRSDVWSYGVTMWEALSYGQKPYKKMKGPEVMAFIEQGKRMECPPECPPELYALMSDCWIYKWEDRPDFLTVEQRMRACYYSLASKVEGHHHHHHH
Outline: as §1

Measured: IC50

T2 sequence (P35916 25-1363): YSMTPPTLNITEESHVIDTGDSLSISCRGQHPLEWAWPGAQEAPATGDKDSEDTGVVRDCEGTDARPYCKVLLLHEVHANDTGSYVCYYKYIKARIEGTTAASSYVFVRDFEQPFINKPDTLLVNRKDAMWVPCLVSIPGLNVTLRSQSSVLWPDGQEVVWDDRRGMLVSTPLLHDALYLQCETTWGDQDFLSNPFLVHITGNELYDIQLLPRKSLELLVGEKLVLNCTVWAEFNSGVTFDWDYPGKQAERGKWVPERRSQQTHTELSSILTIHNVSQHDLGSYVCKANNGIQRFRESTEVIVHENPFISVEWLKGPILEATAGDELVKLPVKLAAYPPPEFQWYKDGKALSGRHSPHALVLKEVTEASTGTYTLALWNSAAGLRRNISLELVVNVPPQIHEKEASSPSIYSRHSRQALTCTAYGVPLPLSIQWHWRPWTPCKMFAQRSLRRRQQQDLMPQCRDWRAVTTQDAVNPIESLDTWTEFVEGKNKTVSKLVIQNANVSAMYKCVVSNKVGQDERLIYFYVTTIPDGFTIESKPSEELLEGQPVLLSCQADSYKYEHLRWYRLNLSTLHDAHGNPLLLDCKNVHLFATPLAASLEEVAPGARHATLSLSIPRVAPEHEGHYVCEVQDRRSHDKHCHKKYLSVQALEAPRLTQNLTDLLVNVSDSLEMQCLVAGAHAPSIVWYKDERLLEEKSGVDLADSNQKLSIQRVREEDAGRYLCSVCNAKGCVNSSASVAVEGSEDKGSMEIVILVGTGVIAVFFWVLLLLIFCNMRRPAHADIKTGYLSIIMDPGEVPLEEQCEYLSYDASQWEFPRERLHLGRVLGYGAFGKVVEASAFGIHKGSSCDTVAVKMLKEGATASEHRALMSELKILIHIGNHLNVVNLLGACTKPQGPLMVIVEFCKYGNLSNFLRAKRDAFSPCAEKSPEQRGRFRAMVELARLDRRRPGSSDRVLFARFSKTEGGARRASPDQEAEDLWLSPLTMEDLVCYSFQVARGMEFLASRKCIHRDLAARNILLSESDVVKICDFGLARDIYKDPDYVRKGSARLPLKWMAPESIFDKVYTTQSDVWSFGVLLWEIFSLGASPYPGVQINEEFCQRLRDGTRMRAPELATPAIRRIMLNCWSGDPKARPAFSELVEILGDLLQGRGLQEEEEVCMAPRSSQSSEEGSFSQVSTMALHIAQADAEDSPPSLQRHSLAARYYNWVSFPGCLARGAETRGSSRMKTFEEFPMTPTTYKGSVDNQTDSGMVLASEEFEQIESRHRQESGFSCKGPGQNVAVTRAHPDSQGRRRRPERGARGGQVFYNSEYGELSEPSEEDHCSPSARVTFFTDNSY
T3 sequence (P10721 with tags, fused parts or gaps): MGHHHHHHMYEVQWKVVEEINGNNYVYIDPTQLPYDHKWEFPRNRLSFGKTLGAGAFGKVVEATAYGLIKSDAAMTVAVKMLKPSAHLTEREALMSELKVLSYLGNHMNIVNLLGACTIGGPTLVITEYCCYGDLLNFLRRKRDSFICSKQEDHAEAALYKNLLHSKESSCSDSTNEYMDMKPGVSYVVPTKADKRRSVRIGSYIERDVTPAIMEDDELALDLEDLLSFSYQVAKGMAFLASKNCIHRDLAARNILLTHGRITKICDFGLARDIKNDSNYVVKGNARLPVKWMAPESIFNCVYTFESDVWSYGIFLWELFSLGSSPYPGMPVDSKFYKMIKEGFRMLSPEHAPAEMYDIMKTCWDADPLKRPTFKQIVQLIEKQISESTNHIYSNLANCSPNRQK
T4 sequence (P11362 458-765 C488A/C584S): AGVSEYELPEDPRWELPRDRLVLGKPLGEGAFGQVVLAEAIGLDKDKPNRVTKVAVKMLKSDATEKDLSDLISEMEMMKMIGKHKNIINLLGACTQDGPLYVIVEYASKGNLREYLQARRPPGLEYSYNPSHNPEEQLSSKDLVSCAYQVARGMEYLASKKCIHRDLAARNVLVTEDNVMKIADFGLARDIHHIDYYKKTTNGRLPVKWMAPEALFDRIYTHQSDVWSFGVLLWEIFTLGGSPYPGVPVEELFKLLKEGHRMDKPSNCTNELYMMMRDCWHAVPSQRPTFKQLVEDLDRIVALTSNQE
T11 sequence (P12931 with tags, fused parts or gaps): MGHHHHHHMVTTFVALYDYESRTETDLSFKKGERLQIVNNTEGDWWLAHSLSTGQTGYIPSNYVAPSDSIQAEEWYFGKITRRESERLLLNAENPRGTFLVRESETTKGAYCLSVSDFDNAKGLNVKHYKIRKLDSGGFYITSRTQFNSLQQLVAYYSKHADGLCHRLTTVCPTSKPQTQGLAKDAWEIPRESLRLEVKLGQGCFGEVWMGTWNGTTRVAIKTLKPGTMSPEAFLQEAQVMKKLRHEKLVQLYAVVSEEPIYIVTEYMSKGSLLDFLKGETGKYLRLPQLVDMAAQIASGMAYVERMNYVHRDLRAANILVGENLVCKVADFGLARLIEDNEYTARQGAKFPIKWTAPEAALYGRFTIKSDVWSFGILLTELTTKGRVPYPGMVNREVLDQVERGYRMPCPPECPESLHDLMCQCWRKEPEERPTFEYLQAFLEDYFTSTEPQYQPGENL
T6 sequence (P35968 20-1356): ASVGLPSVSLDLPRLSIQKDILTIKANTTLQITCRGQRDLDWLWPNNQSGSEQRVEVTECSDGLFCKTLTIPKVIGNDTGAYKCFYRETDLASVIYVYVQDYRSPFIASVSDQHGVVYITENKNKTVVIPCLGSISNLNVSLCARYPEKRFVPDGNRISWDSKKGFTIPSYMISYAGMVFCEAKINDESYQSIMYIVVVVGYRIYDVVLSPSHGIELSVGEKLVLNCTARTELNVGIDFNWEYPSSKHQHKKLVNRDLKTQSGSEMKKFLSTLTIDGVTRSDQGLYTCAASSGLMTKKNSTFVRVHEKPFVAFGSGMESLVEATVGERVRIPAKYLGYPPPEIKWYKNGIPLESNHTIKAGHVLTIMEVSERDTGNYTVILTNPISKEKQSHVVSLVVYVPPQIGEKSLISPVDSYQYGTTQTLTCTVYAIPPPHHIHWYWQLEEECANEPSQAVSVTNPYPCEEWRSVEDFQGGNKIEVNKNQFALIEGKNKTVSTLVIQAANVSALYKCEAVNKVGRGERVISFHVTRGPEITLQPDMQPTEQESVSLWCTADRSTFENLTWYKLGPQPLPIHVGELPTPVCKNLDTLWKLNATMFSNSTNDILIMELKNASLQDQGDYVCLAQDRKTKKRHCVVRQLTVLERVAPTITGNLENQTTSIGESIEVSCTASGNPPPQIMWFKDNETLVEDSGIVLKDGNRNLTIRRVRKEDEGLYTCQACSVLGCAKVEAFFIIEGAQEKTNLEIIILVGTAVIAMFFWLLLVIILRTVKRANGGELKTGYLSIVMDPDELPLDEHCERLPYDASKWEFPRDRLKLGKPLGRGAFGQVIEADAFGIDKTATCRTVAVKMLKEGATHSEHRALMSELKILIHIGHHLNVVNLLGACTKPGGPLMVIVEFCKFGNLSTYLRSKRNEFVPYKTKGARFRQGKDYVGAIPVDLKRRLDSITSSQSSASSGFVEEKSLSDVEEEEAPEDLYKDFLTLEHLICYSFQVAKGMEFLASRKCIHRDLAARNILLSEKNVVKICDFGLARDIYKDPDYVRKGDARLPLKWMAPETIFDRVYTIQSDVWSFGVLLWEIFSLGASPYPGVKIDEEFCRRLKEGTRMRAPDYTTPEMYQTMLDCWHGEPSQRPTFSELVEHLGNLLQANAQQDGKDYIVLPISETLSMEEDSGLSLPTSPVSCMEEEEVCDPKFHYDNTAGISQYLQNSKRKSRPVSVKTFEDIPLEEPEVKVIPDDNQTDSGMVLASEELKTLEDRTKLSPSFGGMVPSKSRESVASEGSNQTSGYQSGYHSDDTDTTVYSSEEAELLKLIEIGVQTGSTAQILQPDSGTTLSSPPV
T12 sequence (P53779 whole entry): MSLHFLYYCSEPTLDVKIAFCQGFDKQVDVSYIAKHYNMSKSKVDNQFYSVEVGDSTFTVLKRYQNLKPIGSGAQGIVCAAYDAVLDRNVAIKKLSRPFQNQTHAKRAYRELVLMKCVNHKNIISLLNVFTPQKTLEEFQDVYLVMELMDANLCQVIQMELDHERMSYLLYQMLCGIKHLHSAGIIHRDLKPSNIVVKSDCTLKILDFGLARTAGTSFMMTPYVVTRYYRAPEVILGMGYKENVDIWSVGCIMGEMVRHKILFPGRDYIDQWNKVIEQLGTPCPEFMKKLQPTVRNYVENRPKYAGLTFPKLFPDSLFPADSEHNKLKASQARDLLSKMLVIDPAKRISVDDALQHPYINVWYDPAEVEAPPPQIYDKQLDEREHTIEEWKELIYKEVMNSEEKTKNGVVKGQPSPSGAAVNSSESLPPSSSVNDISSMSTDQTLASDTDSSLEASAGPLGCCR
T13 sequence (P45983 whole entry): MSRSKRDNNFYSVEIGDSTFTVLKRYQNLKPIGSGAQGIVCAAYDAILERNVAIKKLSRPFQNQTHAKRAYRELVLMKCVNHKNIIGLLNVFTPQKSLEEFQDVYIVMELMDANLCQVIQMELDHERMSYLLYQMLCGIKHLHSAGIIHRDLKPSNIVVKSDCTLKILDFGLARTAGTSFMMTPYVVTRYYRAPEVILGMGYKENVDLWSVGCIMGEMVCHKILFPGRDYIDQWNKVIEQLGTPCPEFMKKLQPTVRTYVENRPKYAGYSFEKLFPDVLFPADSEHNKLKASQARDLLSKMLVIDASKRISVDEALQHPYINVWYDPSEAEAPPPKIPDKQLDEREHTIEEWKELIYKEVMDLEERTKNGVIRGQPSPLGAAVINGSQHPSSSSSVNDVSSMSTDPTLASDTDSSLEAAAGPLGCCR
T15 sequence (P15056 with tags, fused parts or gaps V600E): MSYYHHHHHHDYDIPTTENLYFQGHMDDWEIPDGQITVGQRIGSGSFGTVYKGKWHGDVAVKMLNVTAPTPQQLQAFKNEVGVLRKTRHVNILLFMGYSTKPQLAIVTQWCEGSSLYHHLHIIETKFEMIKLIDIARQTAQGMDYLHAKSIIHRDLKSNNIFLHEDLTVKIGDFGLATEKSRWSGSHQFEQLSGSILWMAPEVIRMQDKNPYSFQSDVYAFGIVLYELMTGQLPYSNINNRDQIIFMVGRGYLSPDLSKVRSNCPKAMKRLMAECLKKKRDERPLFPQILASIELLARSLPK

COc1cccc(Cc2c[nH]c3ncc(-c4cccs4)cc23)c1 [Compound P-0142]
≤ 10 µM: [1] | [2] | [3] | [4] | [5] | [6] | [7] | [8]

Cc1cc(C(=O)c2c[nH]c3ncc(-c4cccc(C(N)=O)c4)cc23)n(C)n1 [Compound P-0224]
≤ 10 µM: [1] | [2] | [9] | [3] | [6] | [7] | [10]

O=C(c1cc(O)ccc1F)c1c[nH]c2ncc(-c3cccnc3)cc12 [Compound P-0559]
≤ 10 µM: [1] | [2] | [11] | [12] | [3] | [13] | [14] | [15] | [16] | [17] | [4] | [6] | [7] | [8] | [10]

COc1cc(O)cc(Cc2c[nH]c3ncc(-c4ccsc4)cc23)c1 [Compound P-0594]
≤ 10 µM: [1] | [2] | [12] | [3] | [15] | [16] | [4] | [5] | [7]

Nc1cccc(-c2cnc3[nH]cc(C(=O)c4ccccc4F)c3c2)c1 [Compound P-0624]
≤ 10 µM: [1] | [2] | [11] | [12] | [3] | [13] | [15] | [4] | [18] | [6] | [7] | [10]

NC(=O)c1ccc(-c2cnc3[nH]cc(C(=O)c4cccc(O)c4)c3c2)cc1 [Compound P-0645]
≤ 10 µM: [1] | [2] | [11] | [12] | [3] | [15] | [4] | [6] | [7]

NC(=O)c1ccc(-c2cnc3[nH]cc(C(=O)c4ccccc4F)c3c2)cc1 [Compound P-0691]
≤ 10 µM: [1] | [2] | [9] | [12] | [3] | [13] | [15] | [4] | [6] | [7] | [10]
